In patent publication US9650361B2, “N-(pyridin-2-yl)pyrimidin-4-amine derivatives containing a sulfoximine group” (BAYER PHARAM AKTIENGESELLSCHAFT, priority 2012, dated 2017):
≈ marks a conversion by molar mass, not a printed value.

Key:
[1] = Equilibrium shake flask solubility assay, thermodynamic solubility in water (Method 4a); type: physicochemical; details: aqueous buffer, thermodynamic from solid; phosphate buffer pH 6.5, 24 h, room temperature
Description: 4. Equilibrium Shake Flask Solubility Assay:
4a) Thermodynamic Solubility in Water
The thermodynamic solubility of compounds in water was determined by an equilibrium shake flask method (see for example: E. H. Kerns, L. Di: Drug-like Properties: Concepts, Structure Design and Methods, 276-286, Burlington, Mass., Academic Press, 2008). A saturated solution of the drug was prepared and the solution was mixed for 24 h to ensure that equilibrium was reached. The solution was centrifuged to remove the insoluble fraction and the concentration of the compound in solution was determined using a standard calibration curve. To prepare the sample, 2 mg solid compound was weighed in a 4 mL glass vial. 1 mL phosphate buffer pH 6.5 was added. The suspension was stirred for 24 hrs at room temperature. The solution was centrifuged afterwards. To prepare the sample for the standard calibration, 2 mg solid sample was dissolved in 30 mL acetonitrile. After sonification the solution was diluted with water to 50 mL. Sample and standards were quantified by HPLC with UV-detection. For each sample two injection volumes (5 and 50 μl) in triplicates were made. Three injection volumes (5 μl, […]) were made for the standard. […]
(§1) The areas of sample- and standard injections as well as the calculation of the solubility value (in mg/l) were determined by using HPLC software (Waters Empower 2 FR).

[2] = Caco-2 permeation assay (Method 5); type: in vitro ADME; details: human, Caco-2, pH 7.2, 2 μM test compound; for Papp A→B at 2 h, 2 µM: read-out: Papp A-B (Mari); for Papp B→A at 2 h, 2 µM: read-out: Papp B-A (Mari); for efflux ratio at 2 h, 2 µM: Papp B-A / Papp A-B
Description: 5. Caco-2 Permeation Assay:
Caco-2 cells (purchased from DSMZ Braunschweig, Germany) were seeded at a density of 4.5×10^4 cells per well on 24 well insert plates, 0.4 μm pore size, and grown for 15 days in DMEM medium supplemented with 10% fetal bovine serum, 1% GlutaMAX (100×, GIBCO), 100 U/mL penicillin, 100 μg/mL streptomycin (GIBCO) and 1% non essential amino acids (100×). Cells were maintained at 37° C. in a humidified 5% CO2 atmosphere. Medium was changed every 2-3 day. Before running the permeation assay, the culture medium was replaced by a FCS-free hepes-carbonate transport buffer (pH 7.2). For assessment of monolayer integrity the transepithelial electrical resistance (TEER) was measured. Test compounds were predissolved in DMSO and added either to the apical or basolateral compartment in final concentration of 2 μM in transport buffer. Before and after 2 h incubation at 37° C. samples were taken from both compartments. Analysis of compound content was done after precipitation with methanol by LC/MS/MS analysis. Permeability (Papp) was calculated in the apical to basolateral (A→B) and basolateral to apical (B→A) directions. The apparent permeability was calculated using following equation: Papp=(Vr/Po)(1/S)(P2/t)
Where Vr is the volume of medium in the receiver chamber, Po is the measured peak area or height of the test drug in the donor chamber at t=o, S the surface area of the monolayer, P2 is the measured peak area of the test drug in the acceptor chamber after 2 h of incubation, and t is the incubation time. The efflux ratio basolateral (B) to apical (A) was calculated by dividing the Papp B-A by the Papp A-B. In addition the compound recovery was calculated. The following reference compounds were used for the classification of the permeability class: Antipyrine, Pyrazosin, Verapamil, Fluvastatin, Cimetidine, Ranitidine, Atenolol, Sulfasalazine.

[3] = Equilibrium shake flask solubility assay, thermodynamic solubility in citrate buffer pH 4 (Method 4b); type: physicochemical; details: aqueous buffer, thermodynamic from solid; citrate buffer pH 4, 24 h, room temperature; read-out: Solubility in Citrate buffer pH4
Description: 4b) Thermodynamic Solubility in Citrate Buffer pH 4
Thermodynamic solubility was determined by an equilibrium shake flask method [Literature: Edward H. Kerns and Li Di (2008) Solubility Methods in: Drug-like Properties: Concepts, Structure Design and Methods, p 276-286. Burlington, Mass.: Academic Press].
A saturated solution of the drug was prepared and the solution was mixed for 24 h to ensure that equilibrium has been reached. The solution was centrifuged to remove the insoluble fraction and the concentration of the compound in solution was determined using a standard calibration curve.
To prepare the sample, 1.5 mg solid compound was weighed in a 4 ml glass vial. 1 ml Citrate buffer pH 4 was added. The suspension was put on a stirrer and mixed for 24 hrs at room temperature. The solution was centrifuged afterwards. To prepare the sample for the standard calibration, 0.6 mg solid sample was dissolved in 19 ml acetonitrile/water 1:1. After sonification the solution was filled up with acetonitrile/water 1:1 to 20 ml.
Sample and standards were quantified by HPLC with UV-detection. For each sample two injection volumes (5 and 50 μl) in triplicates were made. Three injection volumes (5 μl, 10 μl and 20 μl) were made for the standard.
Citrate buffer pH 4 (MERCK Art. 109435; 1 L buffer consisting of 11,768 g citric acid,
4,480 g sodium hydroxide, 1,604 g hydrogen chloride)
Chromatographic conditions were as follows:
HPLC column: Xterra MS C18 2.5 μm 4.6×30 mm
Injection volume: Sample: 3×5 μl and 3×50 μl
• Standard: 5 μl, 10 μl, 20 μl Flow: 1.5 ml/min Mobile phase: acidic gradient: • A: Water/0.01% TFA • B: Acetonitrile/0.01% TFA • 0 min: 95% A 5% B • 0-3 min: 35% A 65% B, linear gradient • 3-5 min: 35% A 65% B, isocratic • 5-6 min: 95% A 5% B, isocratic UV detector: wavelength near the absorption maximum (between 200 and 400 nm)
as §1

solubility at 24 h [1] | Papp A→B at 2 h, 2 µM [2] | Papp B→A at 2 h, 2 µM [2] | efflux ratio at 2 h, 2 µM [2] | solubility at 24 h [3] | SMILES
7 µg/mL (≈ 18.1 µM) | 2.6 ×10⁻⁶ cm/s | 24.3 ×10⁻⁶ cm/s | 9.3 |  | COc1cc(F)ccc1-c1cc(Nc2cc(CS(C)(=N)=O)ccn2)ncn1 (racemic) [Example 1, (rac)-6-(4-Fluoro-2-methoxyphenyl)-N-{4-[(S-methylsulfonimidoyl)methyl]pyridin-2-yl}pyrimidin-4-amine]
 |  |  |  | 15 µg/mL (≈ 35.6 µM) | COc1cc(F)ccc1-c1cc(Nc2cc(CS(C)(=N)=O)cc(Cl)n2)ncn1 (racemic) [Example 4, (rac)-N-{6-Chloro-4-[(S-methylsulfonimidoyl)methyl]pyridin-2-yl}-6-(4-fluoro-2-methoxyphenyl)pyrimidin-4-amine]
 | 3.9 ×10⁻⁶ cm/s | 28.9 ×10⁻⁶ cm/s | 7.49 | 157 µg/mL (≈ 391 µM) | COc1cc(F)ccc1-c1cc(Nc2cc(CS(C)(=N)=O)cc(C)n2)ncn1 (racemic) [Example 7, (rac)-6-(4-Fluoro-2-methoxyphenyl)-N-{6-methyl-4-[(S-methylsulfonimidoyl)methyl]pyridin-2-yl}pyrimidin-4-amine]
 | 4.5 ×10⁻⁶ cm/s | 20.6 ×10⁻⁶ cm/s | 4.58 | 11 µg/mL (≈ 24.2 µM) | COc1cc(F)ccc1-c1cc(Nc2cc(CS(C)(=N)=O)cc(C(F)(F)F)n2)ncn1 (racemic) [Example 10, (rac)-6-(4-Fluoro-2-methoxyphenyl)-N-{4-[(S-methylsulfonimidoyl)methyl]-6-(trifluoromethyl)pyridin-2-yl}pyrimidin-4-amine]
